This is an account of results in US20220380309A1, “CHOLINE METABOLISM INHIBITORS” (President and Fellows of Harvard College, priority 2018, published 2022).

Experiment [1] concerns E. coli MS69-1. Description: Choline TMA-lyase activity (TMA generation) in cut gene cluster-harboring bacteria. The conditions noted are these: 1 mM choline-d9, 3.5 hours, 37° C., read-out: EC50 against E. coli MS69-1. In kind it is cell-based, Escherichia coli.
For experiment [2], the system named is P. mirabilis ATCC 29906. Described as above. In kind it is cell-based, Proteus mirabilis. Particulars: 1 mM choline-d9, 3.5 hours, 37° C., read-out: EC50 against P. mirabilis ATCC 29906.
Experiment [3] has as its system Klebsiella sp. MS92-3. The experiment is described as above. It counts as cell-based. Particulars: 1 mM choline-d9, 3.5 hours, 37° C., read-out: EC50 against Klebsiella sp. MS92-3.
Experiment [4] concerns fecal sample. Kind of experiment: Choline TMA-lyase activity in a fecal suspension ex vivo. It counts as cell-based. The conditions noted are these: TMA generation, fecal sample 1:10 in Mega media, 1 mM choline-d9, 18 h, 37° C.; read-out: EC50 against fecal sample.

Consider `CN1CC=C[C@@H](O)C1` [drawing 205], for which the figures for the EC50 in experiment [1], in experiment [2] and in experiment [3] were 64 µM, 366 µM and 17 µM, respectively.
Take `CN1CC=CC(O)C1` (centres unmarked) [drawing 203]: the EC50 (as a rule, the concentration needed to bring the measured effect to its halfway point) in experiment [1] is 27 µM; in experiment [2], 97 µM; in experiment [3] it was 5 µM; in experiment [4], 78 µM.
For the compound `CN1CC=C[C@H](O)C1` [drawing 204], the EC50 in experiment [1] was 22 µM; in experiment [2], 92 µM; in experiment [3] it was 4 µM; in experiment [4], 60 µM.
